{"source": "patent US20130296434A1", "about": "“FORMULATIONS AND METHODS FOR TREATING AMYLOIDOSIS” (Kiacta Sarl, priority 2005, published 2013)", "key": {"[1]": {"test_system": "subjects having secondary (AA) amyloidosis", "assay": "Randomized, double-blind, placebo-controlled 24-month efficacy and safety study of PDS in secondary (AA) amyloidosis", "format": "in vivo, human", "description": "A multicenter, multinational, randomized, double-blind, placebo-controlled, and parallel-design study to assess the efficacy and safety of 1,3-propanedisulfonic acid disodium salt (PDS) in subjects having secondary (AA) amyloidosis is conducted. […] If ClCr decreases or increases to the next lower or higher range level, the dose regimen is adjusted accordingly. Subject medication is administered orally (capsule). Each patient is evaluated on 16 occasions, including on-site visits at months 0 (baseline), 1, 4, 8, 12, 16, 20 and 24.\nThe volume of urine is recorded in the case report form at study site and an aliquot of urine is sent to the central laboratory for determination of urinary creatinine. A blood sample is collected to measure serum creatinine. The creatinine clearance (ClCr) is calculated using the following formula and recorded in the case report form: […]\nThe creatinine clearance normalized for body surface area is calculated by dividing the creatinine clearance by the body surface area.\nSubjects are classified into three categories based on a composite assessment of renal function at the end of the 24 month treatment period compared to baseline. […] Subjects are classified as “improved” if the following clinical milestones of improvement are met: ≧50% increase in ClCr and no clinical milestones of worsening. Subjects are classified as “stable” if none of the clinical milestones of worsening or improvement are met.\nAll subjects are categorized according to the evolution of their disease (“worse”, “stable”, or “improved”). This constitutes the primary efficacy endpoint for the study and is analyzed in the Intent-to-Treat (ITT) population according to two pre-specified statistical methodologies: 1) the Cochran-Mantel-Haenszel row mean scores test (CMH test) to compare the percentage of subjects who reach each category at the end of the study in comparison to their status at Baseline, and 2) a proportional hazards regression model (Cox analysis) to compare between treatment groups both the number of first “worse” events, as well as when they occur, thus making more use of all available data. Both methodologies are adjusted for the stratification of nephrotic status at Baseline (nephrotic vs non-nephrotic) as pre-specified.\nThe primary efficacy endpoint is a composite assessment of clinical improvement/worsening of renal function. At the end of the study, the subjects are classified into three categories, “Worse” and death (all causes), “Stable”, or “Improved”. […] The subjects are classified as “stable” if none of the clinical milestones of worsening or improvement are met. […] The term “End of Study” is defined as Month 24 for subjects who completed the study and as the last available measurement for the subjects who discontinued early.\nThe secondary efficacy endpoints are an assessment of clinical improvement/worsening of both renal and gastrointestinal functions. At the end of the study, subjects are classified into three categories based on their condition: worse, stable, or improved.\nThis parameter will be normalized for body surface area and the least-squares estimate of the within-subject slope will be calculated using all available creatinine clearance measurements. Although the study is for 2 years, the slope will be expressed as an annual rate of change.\nChange from baseline to End of Study in Proteinuria and Creatinine Clearance will be analyzed as a secondary efficacy endpoint. The End of Study is defined as Month 24 for subjects who completed and as the last available visit for subjects who discontinued early. At Screening, proteinuria, creatinine clearance, and serum creatinine are to be collected from two distinct assessments which are to have been at least 1 week apart and within 3 months prior to study entry (Baseline visit). For the creatinine clearance parameter, the normalized value will be used."}, "[2]": {"assay": "Pharmacokinetics of single rising oral doses of PDS and food effect in healthy male subjects", "format": "in vivo, human", "conditions": "for AUC(0-inf) / AUC(0-t) / Cmax / Tmax: male, po; for AUC(0-inf) / AUC(0-t) / Cmax: mean; for Tmax: median", "source_text": "In the following examples, terms are as defined below. The pharmacokinetic parameters were derived by non-compartmental analysis using WinNonlin® (Pharsight Corp., Mountain View, Calif., USA). • Cmax—the maximum observed plasma concentration. • Tmax—the time of occurrence of Cmax. • AUC0-t—the area under the plasma concentration versus time curve from time zero to the last sampling time at which concentrations were at or above the limit of quantification, calculated by the linear trapezoidal rule. • AUC∞—the area under the plasma concentrations versus time curve from time zero to infinity, calculated from AUC0-t+(Clast/λz), where Clast is the last observed quantifiable concentration and λz is the apparent terminal rate constant. • t1/2 the apparent terminal half-life, calculated from ln 2/λz\nThe safety, tolerability and pharmacokinetics of PDS following single oral administration in healthy male adult volunteers is determined. The effect of food on the pharmacokinetics of PDS is also determined. The first part of the study is a randomized, double-blind, placebo-controlled study to assess the pharmacokinetic profile of 6 single rising oral doses of PDS in healthy male subjects. The second part of this study is an open-label, two-way crossover study to investigate the effect of food on the pharmacokinetic profile of a single oral dose of PDS under fasted and fed conditions. Blood samples are collected during 36 hours following dosing. Plasma concentrations of PDS are determined using validated HPLC methods. […] The extent of systemic exposure (AUC and Cmax) to PDS increases with increasing dose. […] PDS should therefore not be given concomitantly with a high fat meal."}, "[3]": {"conditions": "End of the Study, compared to placebo"}, "[4]": {"conditions": "composite renal assessment at end of 24 month treatment, 400-1200 mg BID by ClCr, p value=0.06"}, "[5]": {"conditions": "human, plasma, 100 mg, single oral 100 mg, healthy male subjects, n = 6"}, "[6]": {"conditions": "human, plasma, 200 mg, single oral 200 mg, healthy male subjects, n = 5"}, "[7]": {"conditions": "human, plasma, 400 mg, single oral 400 mg, healthy male subjects, n = 5"}, "[8]": {"conditions": "human, plasma, 800 mg, single oral 800 mg, healthy male subjects, n = 10"}, "[9]": {"conditions": "human, plasma, 1600 mg, single oral 1600 mg (rising dose part), healthy male subjects, n = 5"}, "[10]": {"conditions": "human, plasma, 1600 mg, single oral 1600 mg, Fasted, healthy male subjects, n = 8"}, "[11]": {"conditions": "human, plasma, 1600 mg, single oral 1600 mg, Fed (high-fat meal), healthy male subjects, n = 8"}, "[12]": {"conditions": "human, plasma, 2400 mg, single oral 2400 mg, healthy male subjects, n = 5"}}}
{"molecule": "O=S(=O)([O-])CCCS(=O)(=O)[O-].[Na+].[Na+]", "note": "[PDS, 1,3-propanedisulfonic acid, disodium salt]", "values": [{"measurement": "mean difference in slope of creatinine clearance, treated vs. placebo", "setting": "[1]; End of the Study", "result": 4.7, "unit": "mL/min/1.73 m^2/year"}, {"measurement": "median time to the first worse event", "setting": "[1]; End of the Study, PDS treated subjects", "result": 14.5, "unit": "months"}, {"measurement": "reduction in the rate of loss of renal function (slope of creatinine clearance over time)", "setting": "[1]; End of the Study, PDS-treated vs placebo", "result": 30.1, "unit": "%"}, {"measurement": "reduction of risk of dialysis/ESRD", "setting": "[1]; [3]", "result": 46, "unit": "%"}, {"measurement": "reduction of risk of doubling of serum creatinine", "setting": "[1]; [3]", "result": 59, "unit": "%"}, {"measurement": "reduction of risk of ≧50% decrease in creatinine clearance", "setting": "[1]; [3]", "result": 52, "unit": "%"}, {"measurement": "median time to dialysis, longer than placebo", "setting": "[1]; End of the Study, patients progressing to dialysis", "result": 5.3, "unit": "months"}, {"measurement": "median time to doubling of serum creatinine, longer than placebo", "setting": "[1]; End of the Study, patients with a doubling of SCr", "result": 3.6, "unit": "months"}, {"measurement": "median time to at least a 50% decrease in creatinine clearance, longer than placebo", "setting": "[1]; End of the Study, patients with a ≧50% decrease in CrCl", "result": 4.4, "unit": "months"}, {"measurement": "risk of any worse event of renal decline or all-cause mortality, relative to the risk for placebo", "setting": "[1]; End of the Study, printed as reduction to this % of the risk for placebo", "result": 42, "unit": "%"}, {"measurement": "median time to the first worse event, longer than placebo", "setting": "[1]; End of the Study, treated vs placebo", "result": 6.4, "unit": "months"}, {"measurement": "creatinine clearance, Change from End of Study to Baseline, Median", "setting": "[1]; PDS group N = 89, n 85", "result": "−11.35", "unit": "mL/min/1.73 m^2"}, {"measurement": "slope of creatinine clearance normalized for body surface area, Mean (S.E.)", "setting": "[1]; PDS group N = 89, n 85, annual rate of change", "result": "−10.9 (5.1) mL/min/1.73 m^2/year"}, {"measurement": "slope of creatinine clearance normalized for body surface area, Median", "setting": "[1]; PDS group N = 89, n 85, annual rate of change, P-value vs placebo 0.025", "result": "−5.9", "unit": "mL/min/1.73 m^2/year"}, {"measurement": "creatinine clearance, Change from End of Study to Baseline, Mean (S.E.)", "setting": "[1]; PDS group N = 89, n 85, p-value vs placebo 0.058", "result": "−14.68 (4.19) mL/min/1.73 m^2"}, {"measurement": "fewer subjects classified as worse compared to placebo", "setting": "[1]; [4]", "result": 13.4, "unit": "%"}, {"measurement": "more subjects stable or improved compared to placebo", "setting": "[1]; [4]", "result": 13.4, "unit": "%"}, {"measurement": "estimated difference in CrCl change, PDS vs placebo", "setting": "[1]; end of the study", "result": 7.7, "unit": "mL/min/1.73 m^2"}, {"measurement": "mean difference in CrCl (baseline to end of study)", "setting": "[1]; end of the study, PDS treated subjects", "result": "−14.7±4.2", "unit": "mL/min/1.73 m^2"}, {"measurement": "half-life", "setting": "[2]; human, plasma, single oral doses 100-2400 mg, healthy male subjects, range of means, read-out: mean half-life (T1/2)", "result": "120 to 1560", "unit": "min"}, {"measurement": "AUC(0-inf)", "setting": "[2]; [5]", "result": 419, "unit": "ng·h/mL"}, {"measurement": "AUC(0-t)", "setting": "[2]; [5]", "result": 240, "unit": "ng·h/mL"}, {"measurement": "Cmax", "setting": "[2]; [5]", "result": 99.5, "unit": "ng/mL"}, {"measurement": "Tmax", "setting": "[2]; [5]", "result": 60, "unit": "min"}, {"measurement": "AUC(0-t)", "setting": "[2]; [6]", "result": 626, "unit": "ng·h/mL"}, {"measurement": "Cmax", "setting": "[2]; [6]", "result": 164, "unit": "ng/mL"}, {"measurement": "Tmax", "setting": "[2]; [6]", "result": 60, "unit": "min"}, {"measurement": "AUC(0-inf)", "setting": "[2]; [7]", "result": 2900, "unit": "ng·h/mL"}, {"measurement": "AUC(0-t)", "setting": "[2]; [7]", "result": 1880, "unit": "ng·h/mL"}, {"measurement": "Cmax", "setting": "[2]; [7]", "result": 1080, "unit": "ng/mL"}, {"measurement": "Tmax", "setting": "[2]; [7]", "result": 30, "unit": "min"}, {"measurement": "AUC(0-inf)", "setting": "[2]; [8]", "result": 4550, "unit": "ng·h/mL"}, {"measurement": "AUC(0-t)", "setting": "[2]; [8]", "result": 4840, "unit": "ng·h/mL"}, {"measurement": "Cmax", "setting": "[2]; [8]", "result": 2870, "unit": "ng/mL"}, {"measurement": "Tmax", "setting": "[2]; [8]", "result": 30, "unit": "min"}, {"measurement": "AUC(0-t)", "setting": "[2]; [9]", "result": 8410, "unit": "ng·h/mL"}, {"measurement": "Cmax", "setting": "[2]; [9]", "result": 4760, "unit": "ng/mL"}, {"measurement": "Tmax", "setting": "[2]; [9]", "result": 30, "unit": "min"}, {"measurement": "AUC(0-inf)", "setting": "[2]; [10]", "result": 12800, "unit": "ng·h/mL"}, {"measurement": "AUC(0-t)", "setting": "[2]; [10]", "result": 11500, "unit": "ng·h/mL"}, {"measurement": "Cmax", "setting": "[2]; [10]", "result": 6460, "unit": "ng/mL"}, {"measurement": "Tmax", "setting": "[2]; [10]", "result": 30, "unit": "min"}, {"measurement": "AUC(0-inf)", "setting": "[2]; [11]", "result": 6320, "unit": "ng·h/mL"}, {"measurement": "AUC(0-t)", "setting": "[2]; [11]", "result": 4010, "unit": "ng·h/mL"}, {"measurement": "Cmax", "setting": "[2]; [11]", "result": 563, "unit": "ng/mL"}, {"measurement": "Tmax", "setting": "[2]; [11]", "result": 135, "unit": "min"}, {"measurement": "AUC(0-inf)", "setting": "[2]; [12]", "result": 12900, "unit": "ng·h/mL"}, {"measurement": "AUC(0-t)", "setting": "[2]; [12]", "result": 12000, "unit": "ng·h/mL"}, {"measurement": "Cmax", "setting": "[2]; [12]", "result": 6050, "unit": "ng/mL"}, {"measurement": "Tmax", "setting": "[2]; [12]", "result": 30, "unit": "min"}, {"measurement": "effect of food on systemic availability", "setting": "[2]; single oral 1600 mg, fed vs fasted conditions", "result": "decrease in both the rate and extent of systemic availability"}, {"measurement": "dose dependence of systemic exposure (AUC and Cmax)", "setting": "[2]; single oral doses 100-2400 mg, healthy male subjects", "result": "reasonably proportional to the administered dose"}]}
